US8148392B2, “2-indolyl imidazo [4,5-d] phenanthroline derivatives and their use in the treatment of cancer” (Lorus Therapeutics Inc., priority 2005, dated 2012)
“Also recorded” adds a separate entry of the source.

How the values were obtained:
[1] = test system: Sp1; experiment: Sp1 DNA binding activity, EMSA, HT-29 nuclear extracts; type: cell-based, human
Experimental: Based on overlapping transcription factor binding sites on KLF4 gene promoter region (as shown in FIG. 32A), MTF-1 binding may favor increased binding of other KLF4 inducers; Sp1 and KLF4.
Electrophoretic mobility shift assay (EMSA) was performed as follows. Nuclear extracts from HT-29 cells (10^7 cells in 100 mm culture dish in each experimental group) were prepared using nuclear extraction kit (Panomics, Redwood City, Calif.). EMSA assays were performed using KLF4 and Sp1 EMSA “Gel-Shift” kits (Panomics), by following the manufacturer's instruction. Briefly, 5 μg of nuclear extract was used for each binding reaction. After 30 min of binding reaction, the samples were separated on 6% polyacrylamide gel at 4° C. at 120 V, and transferred to BrightStar™-Plus positively charged nylon membrane. The biotin-labeled probes on the membrane were visualized by using ECL detection system (Panomics).

[2] = test system: normal cell lines PrEC, HMEC, WI38 and cancer cell lines DU145, MDA-MB-435, HT-29; experiment: Cancer cell selectivity, IC90 in normal versus cancer cell lines (XTT); type: cell-based, human; details: average IC90 of all normal / average IC90 of all cancer cell lines, 6 to 7 days
From the text: An exemplary method of assessing the differential sensitivity between normal and cancer cells for a compound has been described by Vassilev et al. (Anti-Cancer Drug Design (2001) 16:7). This method involves the comparison of IC90 values, i.e. the molar concentration of a test compound required to cause 90% growth inhibition of exponentially growing cells. Thus, the IC90 values for candidate compounds can be evaluated in various cancer cell lines (such as those outlined above) and normal cells (such as HUVEC and/or WI38 cells) and compared. IC90 values can be measured using a variety of standard techniques as known in the art. Cancer cell selectivity is calculated as a ratio between the average IC90 for all normal cell lines and the average IC90 for all cancer cell lines. Compounds with an IC90 ratio (normal/cancer) of >4 are considered to be selective for cancer cells (L. T. Vassilev et al., Anti-cancer Drug Design, 2001, 16: 7-17).
The normal cells lines used were PrEC (prostate), HMEC (breast), and WI38 (lung fibroblast) cell lines and the cancer cells lines were DU145 (prostate), MDA-MB-435 (breast), HT-29 (colon). IC90 values were also determined for the controls doxorubicin and etoposide. The cells were cultured as generally described in Example 13. Various concentrations of the compounds were incubated with the cells for 6 to 7 days, and the number of proliferating cells was measured using the XTT assay. Cancer cell selectivity was calculated as a ratio between the average IC90 for all normal and the average IC90 for all cancer cell lines.

[3] = test system: KLF4; experiment: KLF4 mRNA in HT-29 tumour xenografts, RT-PCR; type: in vivo, CD-1 female nude mice
Experimental: The ability of compound 3 to modulate expression of KLF4 in HT-29 colon tumour xenograft was determined as follows. Groups of 10 CD-1 female nude mice (6-7 weeks) were injected in the lower mid back with human colon adenocarcinoma cells HT-29 cells (3×10^6 cells in 0.1 ml PBS) subcutaneously. […] After the treatment period, the animals were sacrificed, the tumours excised, and total RNA was extracted from 30 mg of tumour tissue using Rneasy Mini kit (QIAGEN, Valencia, Calif.). The expression of KLF4 mRNA was analyzed by real-time polymerase chain reaction using the comparative CT method as described in Example 19. […]
To examine the effect of compound 3-mediated changes in KLF4 and Cyclin D1 expressions in vivo, the expressions of respective genes in xenograft tissues of vehicle control (Lutrol) and compound 3-treated HT-29 colon cancer cell-transplanted mice were analyzed by RT-PCR (FIG. 46). Briefly, KLF4 and Cyclin D1 gene expression in HT-29 xenograft tissues after 14 days treatment with compound 3 was measured as follows. […] Total RNA was extracted and gene expression level was determined by RT-PCR. […]
The tumor regression efficacy of compound 3 was assessed in compound 3-treated HT-29-transplanted athymic mice (FIG. 54A), and correlated with gene expressions of MTF-1, KLF4 and Cyclin D1 in HT-29 xenograft tissues (FIG. 54B). […]

[4] = test system: Egr-1; experiment: Egr-1 gene expression in HT-29 cells, RT-PCR; type: cell-based, human
Experimental: Like Sp1, Egr-1 also is a transcription factor with zinc finger DNA-binding domains, which recognizes GC-rich sequences in the regulatory promoter region of the targeted gene (Al-Sarraj et al., (2005) J. Cell Biochem. 94(1): 153-167). Changes in Egr-1 gene expression were detected in compound 3-treated HT-29 cells by RT-PCR (FIG. 44A) as follows. HT-29 cells were treated with 1 μM compound 3 for the indicated times. Total RNA was extracted and gene expression level was determined by RT-PCR. To determine the effects of zinc supplement, HT-29 cells were treated with 1 μM compound 3, 35 μM ZnCl2 or compound 3 and ZnCl2 together for 8 hr. Egr-1 gene expression was determined by RT-PCR (FIG. 44B).

Compound: Cc1[nH]c2ccccc2c1-c1nc2c3cccnc3c3ncccc3c2[nH]1 [Compound 3]
- DNA binding activity of Sp1 [1]: Increased DNA binding activities
- Normal/cancer IC90 ratio [2]: >4.3
- induction of KLF4 in tumour xenografts ([3]; 50 mg/kg/d, 35 days, versus vehicle): approximately 1.5 fold
- KLF4 gene expression in xenograft tissue, change ([3]; 100 mg/kg i.p., 14 days or 2 cycles of 5 days): increase in KLF4 gene; also recorded: significant increase in KLF4
- Egr-1 expression change with zinc supplement ([4]; HT-29, 1 μM compound plus 35 μM ZnCl2, 8 hr): reversible upon addition of zinc supplement
- Egr-1 gene expression ([4]; HT-29, 1 μM, as early as 2 hr): significant increase in Egr-1 gene expression
